Test results taken from ChEMBL document CHEMBL1201862, “PubChem BioAssay data set” (2004).
Activity calls are given as the source filed them.

Key:
cells = format: functional, cell-based
[1] = ATP-based viability loss in HEK293T cells – cell-based, CellTiter-Glo luminescence, dry powder, set 2, cytotoxicity control, dose response (AID 720595); format: functional; conditions: HEK293
Bcl-2-like protein 10 = biological target: T1, Bcl-2-like protein 10 (Homo sapiens, UniProt Q9HD36); experiment: Bcl-B/TR3 peptide binding disruption – biochemical, fluorescence polarization, FITC-TR3 peptide, selectivity assay for Bfl-1 inhibitor project, primary screen (AID 748);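 also: fluorescence polarization from a fluorescein-labelled TR3 peptide binding purified Bcl-B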
T1 sequence (Q9HD36 whole entry): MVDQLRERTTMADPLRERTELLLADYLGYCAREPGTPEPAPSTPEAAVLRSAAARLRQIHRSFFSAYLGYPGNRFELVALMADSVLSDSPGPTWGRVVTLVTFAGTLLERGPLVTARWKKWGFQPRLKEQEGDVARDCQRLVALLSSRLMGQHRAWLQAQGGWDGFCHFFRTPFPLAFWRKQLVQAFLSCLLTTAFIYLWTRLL

BJ = experiment: growth inhibition of engineered Ras-driven BJ cells – cell-based, alamar blue fluorescence, cherrypicked samples, dose response (AID 2631); format: functional; conditions: Homo sapiens;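 also: confirmatory dose-response assay in RAS-dependent BJ fibroblasts engineered with TERT, LT and ST, with cytotoxicity read by fluorescence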
CAAX prenyl protease 2 = biological target: T2, CAAX prenyl protease 2 (Homo sapiens, UniProt Q9Y256); experiment: inhibition of Ras-converting CAAX protease Rce1 – biochemical, yeast membranes, quenched-peptide fluorescence, cherry-pick, dose response (AID 588849)
T2 sequence (Q9Y256 whole entry): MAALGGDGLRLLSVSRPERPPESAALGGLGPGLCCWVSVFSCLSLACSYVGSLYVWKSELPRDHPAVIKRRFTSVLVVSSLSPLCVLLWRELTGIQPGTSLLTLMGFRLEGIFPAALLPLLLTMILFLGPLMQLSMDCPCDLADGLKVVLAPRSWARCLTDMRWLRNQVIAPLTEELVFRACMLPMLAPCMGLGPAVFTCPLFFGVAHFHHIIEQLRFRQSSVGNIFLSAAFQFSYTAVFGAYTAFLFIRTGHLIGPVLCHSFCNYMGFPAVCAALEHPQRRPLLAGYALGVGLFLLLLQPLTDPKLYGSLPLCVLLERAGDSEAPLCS

[2] = reduction of Shn3 3'UTR-driven luciferase in osteoblasts – cell-based, Clone20 osteoblasts, firefly luciferase, cherry-picked, dose response (AID 624132); format: functional;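 also: firefly luciferase luminescence from reporter carrying the Shn3 3'UTR in osteoblasts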
[3] = biological target: Rho-associated protein kinase 2 (Homo sapiens, UniProt O75116); format: functional
Chain of Rho-associated protein kinase 2 (O75116 whole entry): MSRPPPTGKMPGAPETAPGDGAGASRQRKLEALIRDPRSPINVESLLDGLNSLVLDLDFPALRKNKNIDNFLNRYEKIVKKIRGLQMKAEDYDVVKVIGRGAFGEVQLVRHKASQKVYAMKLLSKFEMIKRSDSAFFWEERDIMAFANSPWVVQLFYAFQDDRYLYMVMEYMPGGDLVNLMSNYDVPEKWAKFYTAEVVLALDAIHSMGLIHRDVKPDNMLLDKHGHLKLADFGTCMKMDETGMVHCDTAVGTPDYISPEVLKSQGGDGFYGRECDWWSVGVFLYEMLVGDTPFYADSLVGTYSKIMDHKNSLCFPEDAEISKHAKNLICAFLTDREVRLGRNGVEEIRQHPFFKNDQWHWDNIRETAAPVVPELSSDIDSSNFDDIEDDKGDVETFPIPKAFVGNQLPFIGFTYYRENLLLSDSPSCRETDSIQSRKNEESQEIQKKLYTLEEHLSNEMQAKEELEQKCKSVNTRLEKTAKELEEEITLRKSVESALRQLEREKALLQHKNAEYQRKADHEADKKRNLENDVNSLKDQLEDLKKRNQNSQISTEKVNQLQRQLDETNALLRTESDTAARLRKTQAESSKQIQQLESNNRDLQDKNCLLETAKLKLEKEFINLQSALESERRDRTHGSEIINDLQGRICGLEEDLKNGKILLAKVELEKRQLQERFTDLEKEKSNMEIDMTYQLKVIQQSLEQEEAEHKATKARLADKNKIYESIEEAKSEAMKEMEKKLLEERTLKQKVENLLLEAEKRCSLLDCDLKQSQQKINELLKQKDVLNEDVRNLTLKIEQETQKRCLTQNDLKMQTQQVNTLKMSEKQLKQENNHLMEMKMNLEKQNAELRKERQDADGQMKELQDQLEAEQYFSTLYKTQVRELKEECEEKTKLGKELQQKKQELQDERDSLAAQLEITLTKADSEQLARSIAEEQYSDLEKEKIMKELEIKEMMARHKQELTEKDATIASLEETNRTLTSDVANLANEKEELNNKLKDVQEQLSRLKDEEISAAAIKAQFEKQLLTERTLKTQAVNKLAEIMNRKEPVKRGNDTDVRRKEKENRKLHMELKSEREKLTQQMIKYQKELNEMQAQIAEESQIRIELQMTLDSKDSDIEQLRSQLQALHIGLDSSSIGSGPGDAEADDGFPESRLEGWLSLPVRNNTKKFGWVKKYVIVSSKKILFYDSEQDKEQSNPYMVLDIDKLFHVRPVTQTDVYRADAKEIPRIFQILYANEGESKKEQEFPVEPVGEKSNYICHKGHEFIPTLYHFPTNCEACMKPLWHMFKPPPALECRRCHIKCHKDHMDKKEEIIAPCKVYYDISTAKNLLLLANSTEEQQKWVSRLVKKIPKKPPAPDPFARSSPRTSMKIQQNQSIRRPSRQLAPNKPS

[4] = biological target: Homeodomain-interacting protein kinase 2 (Homo sapiens, UniProt Q9H2X6); format: functional;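 also: measured within a kinome-wide kinase profiling panel, HIPK2 being one panel member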
Chain of Homeodomain-interacting protein kinase 2 (Q9H2X6 whole entry): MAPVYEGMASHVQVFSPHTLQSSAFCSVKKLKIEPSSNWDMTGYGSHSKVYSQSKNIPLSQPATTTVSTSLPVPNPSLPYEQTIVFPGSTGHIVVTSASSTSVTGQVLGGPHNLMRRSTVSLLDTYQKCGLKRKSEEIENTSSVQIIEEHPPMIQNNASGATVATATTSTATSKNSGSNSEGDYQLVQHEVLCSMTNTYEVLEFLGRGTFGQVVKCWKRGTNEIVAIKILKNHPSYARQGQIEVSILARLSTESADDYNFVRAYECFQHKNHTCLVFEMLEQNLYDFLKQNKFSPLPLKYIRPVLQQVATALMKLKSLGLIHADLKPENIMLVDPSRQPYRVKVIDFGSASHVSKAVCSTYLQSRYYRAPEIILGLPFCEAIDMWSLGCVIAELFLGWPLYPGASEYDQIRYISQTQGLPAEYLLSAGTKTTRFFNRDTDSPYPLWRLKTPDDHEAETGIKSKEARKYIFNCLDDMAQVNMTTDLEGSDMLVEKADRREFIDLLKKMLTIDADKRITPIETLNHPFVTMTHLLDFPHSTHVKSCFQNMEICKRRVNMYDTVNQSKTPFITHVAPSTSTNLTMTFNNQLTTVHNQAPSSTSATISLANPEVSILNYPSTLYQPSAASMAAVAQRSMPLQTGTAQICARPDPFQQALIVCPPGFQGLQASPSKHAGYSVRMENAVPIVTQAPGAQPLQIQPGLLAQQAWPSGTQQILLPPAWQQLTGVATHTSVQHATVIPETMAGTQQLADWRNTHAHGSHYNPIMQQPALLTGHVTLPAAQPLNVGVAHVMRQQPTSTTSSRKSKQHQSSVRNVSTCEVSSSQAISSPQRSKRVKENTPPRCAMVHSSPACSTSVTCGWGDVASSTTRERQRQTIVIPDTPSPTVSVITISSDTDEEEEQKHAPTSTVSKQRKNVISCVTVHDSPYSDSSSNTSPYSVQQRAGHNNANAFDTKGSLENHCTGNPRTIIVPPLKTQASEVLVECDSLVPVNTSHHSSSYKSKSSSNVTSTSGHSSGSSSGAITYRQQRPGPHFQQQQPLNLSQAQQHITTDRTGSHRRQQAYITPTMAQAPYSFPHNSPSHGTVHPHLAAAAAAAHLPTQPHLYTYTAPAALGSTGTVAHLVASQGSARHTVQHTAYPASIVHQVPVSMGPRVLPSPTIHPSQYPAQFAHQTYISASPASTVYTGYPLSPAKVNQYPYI

[5] = biological target: cAMP-dependent protein kinase catalytic subunit alpha (Homo sapiens, UniProt P17612); format: functional
[6] = biological target: Hepatocyte growth factor receptor (Homo sapiens, UniProt P08581); format: functional;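 also: kinase panel profiling across the kinome, with MET as the panel member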
Chain of Hepatocyte growth factor receptor (P08581 whole entry): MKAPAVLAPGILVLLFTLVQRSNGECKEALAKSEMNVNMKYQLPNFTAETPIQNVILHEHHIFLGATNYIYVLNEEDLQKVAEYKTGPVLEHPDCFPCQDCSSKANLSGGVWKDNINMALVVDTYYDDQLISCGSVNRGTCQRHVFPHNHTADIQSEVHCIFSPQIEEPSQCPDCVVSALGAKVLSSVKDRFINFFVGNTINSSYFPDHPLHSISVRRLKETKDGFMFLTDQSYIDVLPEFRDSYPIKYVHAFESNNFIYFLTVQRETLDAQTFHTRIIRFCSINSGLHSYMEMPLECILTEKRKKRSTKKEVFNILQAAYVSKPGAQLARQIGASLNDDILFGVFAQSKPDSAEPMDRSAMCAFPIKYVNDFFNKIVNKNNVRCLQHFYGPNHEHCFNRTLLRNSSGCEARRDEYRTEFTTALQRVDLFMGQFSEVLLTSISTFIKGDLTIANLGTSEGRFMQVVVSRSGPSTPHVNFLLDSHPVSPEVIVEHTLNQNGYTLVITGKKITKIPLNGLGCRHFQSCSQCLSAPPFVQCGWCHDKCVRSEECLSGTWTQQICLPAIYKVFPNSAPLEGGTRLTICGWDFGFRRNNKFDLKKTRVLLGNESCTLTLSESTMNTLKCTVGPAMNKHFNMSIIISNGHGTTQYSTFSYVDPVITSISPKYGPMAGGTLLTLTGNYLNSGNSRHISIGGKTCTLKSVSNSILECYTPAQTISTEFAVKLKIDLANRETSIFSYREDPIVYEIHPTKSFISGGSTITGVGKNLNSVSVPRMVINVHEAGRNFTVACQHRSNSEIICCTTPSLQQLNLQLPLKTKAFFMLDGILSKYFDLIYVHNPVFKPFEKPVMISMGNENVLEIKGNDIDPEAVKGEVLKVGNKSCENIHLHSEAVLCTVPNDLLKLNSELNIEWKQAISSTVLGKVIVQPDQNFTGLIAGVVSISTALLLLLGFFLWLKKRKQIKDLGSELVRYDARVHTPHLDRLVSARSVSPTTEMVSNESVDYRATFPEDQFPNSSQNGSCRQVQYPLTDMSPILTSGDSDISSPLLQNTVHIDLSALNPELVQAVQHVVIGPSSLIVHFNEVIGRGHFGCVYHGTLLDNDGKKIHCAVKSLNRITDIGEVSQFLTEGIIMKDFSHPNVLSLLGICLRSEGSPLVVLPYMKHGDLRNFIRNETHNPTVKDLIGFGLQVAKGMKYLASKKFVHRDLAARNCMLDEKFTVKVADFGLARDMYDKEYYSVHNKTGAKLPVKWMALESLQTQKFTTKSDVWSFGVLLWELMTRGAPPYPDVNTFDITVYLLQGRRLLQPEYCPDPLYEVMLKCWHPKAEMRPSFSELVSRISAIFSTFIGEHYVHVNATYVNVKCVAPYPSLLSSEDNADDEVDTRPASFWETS

[7] = biological target: Serine/threonine-protein kinase Chk1 (Homo sapiens, UniProt O14757); format: functional;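 also: measured as one member of a kinome-wide kinase profiling panel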
Chain of Serine/threonine-protein kinase Chk1 (O14757 whole entry): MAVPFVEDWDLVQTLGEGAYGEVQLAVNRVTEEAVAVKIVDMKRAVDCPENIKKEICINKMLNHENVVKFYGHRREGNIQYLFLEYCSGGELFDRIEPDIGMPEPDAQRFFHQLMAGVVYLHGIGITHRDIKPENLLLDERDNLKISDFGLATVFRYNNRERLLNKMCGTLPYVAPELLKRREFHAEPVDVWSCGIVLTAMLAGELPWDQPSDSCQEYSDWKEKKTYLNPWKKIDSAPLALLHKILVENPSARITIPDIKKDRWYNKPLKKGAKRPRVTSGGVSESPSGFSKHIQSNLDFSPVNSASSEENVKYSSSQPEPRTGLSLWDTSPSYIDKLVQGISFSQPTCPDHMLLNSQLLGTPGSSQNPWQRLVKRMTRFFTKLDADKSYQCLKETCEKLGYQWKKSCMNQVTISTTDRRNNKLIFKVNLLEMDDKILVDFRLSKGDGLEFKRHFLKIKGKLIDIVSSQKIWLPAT

[8] = biological target: Cyclin-dependent kinase 9 (Homo sapiens, UniProt P50750); format: functional;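 also: value from the CDK9 entry of a kinome-spanning kinase panel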
Chain of Cyclin-dependent kinase 9 (P50750 whole entry): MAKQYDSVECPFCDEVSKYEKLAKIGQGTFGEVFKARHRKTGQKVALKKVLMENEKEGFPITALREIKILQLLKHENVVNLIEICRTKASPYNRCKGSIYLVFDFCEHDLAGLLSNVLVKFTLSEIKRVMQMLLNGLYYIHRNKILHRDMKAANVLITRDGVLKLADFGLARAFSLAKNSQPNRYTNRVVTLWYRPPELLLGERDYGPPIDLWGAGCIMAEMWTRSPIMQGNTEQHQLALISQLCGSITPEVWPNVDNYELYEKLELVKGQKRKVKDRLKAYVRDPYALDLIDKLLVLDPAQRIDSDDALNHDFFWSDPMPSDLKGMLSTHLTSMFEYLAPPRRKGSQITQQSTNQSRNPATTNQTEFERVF

[9] = biological target: T3, Sentrin-specific protease 7 (Homo sapiens, UniProt Q9BQF6); format: functional;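 also: Luminescence-based dose-response confirmation of ultra-high-throughput screening hits, measuring inhibition of SENP7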
T3 sequence (Q9BQF6 whole entry): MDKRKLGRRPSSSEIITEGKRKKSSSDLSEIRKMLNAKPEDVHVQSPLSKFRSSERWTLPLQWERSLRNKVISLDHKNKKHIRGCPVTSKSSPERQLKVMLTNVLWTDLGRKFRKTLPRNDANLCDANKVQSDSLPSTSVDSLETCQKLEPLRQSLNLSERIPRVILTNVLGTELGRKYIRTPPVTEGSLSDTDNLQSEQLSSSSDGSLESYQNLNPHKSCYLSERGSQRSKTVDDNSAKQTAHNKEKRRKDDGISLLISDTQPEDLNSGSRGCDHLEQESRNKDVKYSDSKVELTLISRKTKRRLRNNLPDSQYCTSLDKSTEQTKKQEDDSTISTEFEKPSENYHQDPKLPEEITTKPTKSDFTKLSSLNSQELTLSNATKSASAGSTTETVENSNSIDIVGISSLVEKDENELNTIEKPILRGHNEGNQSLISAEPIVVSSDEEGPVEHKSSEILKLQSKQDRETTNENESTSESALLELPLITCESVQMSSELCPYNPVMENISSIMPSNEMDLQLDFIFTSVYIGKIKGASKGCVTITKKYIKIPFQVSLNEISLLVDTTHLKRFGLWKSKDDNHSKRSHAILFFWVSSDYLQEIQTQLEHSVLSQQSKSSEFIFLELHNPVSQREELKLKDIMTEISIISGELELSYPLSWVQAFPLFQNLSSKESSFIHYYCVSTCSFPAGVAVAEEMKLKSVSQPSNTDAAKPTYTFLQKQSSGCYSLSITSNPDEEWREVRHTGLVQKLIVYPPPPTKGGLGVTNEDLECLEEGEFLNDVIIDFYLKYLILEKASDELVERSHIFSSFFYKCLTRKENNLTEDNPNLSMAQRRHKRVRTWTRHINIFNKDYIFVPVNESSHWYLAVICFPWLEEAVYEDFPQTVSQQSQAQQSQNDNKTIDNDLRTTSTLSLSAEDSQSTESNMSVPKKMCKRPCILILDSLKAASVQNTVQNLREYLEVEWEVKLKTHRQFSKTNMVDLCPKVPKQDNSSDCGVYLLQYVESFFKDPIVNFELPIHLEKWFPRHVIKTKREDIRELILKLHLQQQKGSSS

## CC(C)CC(=O)NC(c1cccs1)c1ccc2cccnc2c1O (stereo unspecified)
cells
  EC50: > 350000 nM (not active)
[1]
  AC50: 1750 nM (active)

## CCOC(=O)c1ccc(NC2=CC(=O)C(=O)c3ccccc32)cc1
Bcl-2-like protein 10
  IC50: 60700 nM (inactive)

## OC(CNCCC1C=Nc2ccccc21)Cn1c2ccc(Cl)cc2c2cc(Cl)ccc21 (stereo unspecified)
BJ
  EC50: 4360 nM (inconclusive)
CAAX prenyl protease 2
  AC50: 79300 nM (active)
[2]
  AC50: 5110 nM (active)

## NC1CCC(Nc2nc(Cl)cc(-c3c[nH]c4ncccc34)n2)CC1 (stereo unspecified)
[3]
  Ki: 2 nM (active)
  pKi: 8.7
[4]
  Ki: 39.8 nM (active)
  pKi: 7.4
[5]
  Ki: 7.94 nM (active)
  pKi: 8.1

## O=C(O)C1CN(Cc2ccc(OCc3ccccc3)cc2Cl)C1
[6]
  Ki: > 2510 nM (inactive)
[7]
  Ki: > 3160 nM (inactive)
[8]
  Ki: > 1580 nM (inactive)

## COc1ccc(C(=O)c2nccc3cc(OC)c(OC)cc23)cc1OC
[9]
  IC50: 1670 nM (active)
